Assay results: ChEMBL document CHEMBL4622929 (Bioorg Med Chem Lett, 2020)

Tests used:
[1] = biological target: T1, Adenosine receptor A1 (Rattus norvegicus) (UniProt P25099); assay: Displacement of [3H]DPCPX from Sprague-Dawley rat whole brain membrane A1AR at 100 uM by scintillation counting analysis relative to control; format: cell membranes
T1 sequence (whole entry): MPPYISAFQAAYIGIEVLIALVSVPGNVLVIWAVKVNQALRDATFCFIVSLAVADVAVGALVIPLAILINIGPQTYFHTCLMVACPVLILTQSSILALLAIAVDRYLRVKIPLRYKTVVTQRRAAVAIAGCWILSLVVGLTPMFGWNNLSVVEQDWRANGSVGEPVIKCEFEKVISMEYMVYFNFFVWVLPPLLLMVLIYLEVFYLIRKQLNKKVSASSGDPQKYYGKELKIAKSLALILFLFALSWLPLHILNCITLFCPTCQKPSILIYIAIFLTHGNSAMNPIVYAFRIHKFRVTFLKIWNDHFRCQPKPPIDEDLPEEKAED

Adenosine receptor A2a = Adenosine receptor A2a (Rattus norvegicus, UniProt P30543); assay: Displacement of [3H]NECA from Sprague-Dawley rat striatal membrane A2A adenosine receptor by scintillation counting analysis; format: cell membranes, Striatum
[2] = biological target: Adenosine receptor A2a (Rattus norvegicus) (UniProt P30543); assay: Displacement of [3H]NECA from Sprague-Dawley rat striatal membrane A2A adenosine receptor at 100 uM by scintillation counting analysis relative to control; format: cell membranes; conditions: Striatum
Adenosine receptor A1 [3] = biological target: T2, Adenosine receptor A1 (Rattus norvegicus, UniProt P25099); assay: Displacement of [3H]DPCPX from Sprague-Dawley rat whole brain membrane A1AR by scintillation counting analysis; format: cell membranes
T2 sequence (P25099 whole entry): T1 sequence (whole entry)

Adenosine receptor A1 [4] = biological target: T2, Adenosine receptor A1; assay: Displacement of [3H]DPCPX from Sprague-Dawley rat whole brain membrane A1AR in presence of GTP by radioligand binding assay; format: cell membranes
[5] = biological target: T1, Adenosine receptor A1 (Rattus norvegicus); assay: Ratio of Ki for displacement of [3H]DPCPX from Sprague-Dawley rat whole brain membrane A1AR in presence of GTP to Ki for displacement of [3H]DPCPX from Sprague-Dawley rat whole brain A1AR; format: cell membranes
Rattus norvegicus = species on record: Rattus norvegicus; assay: Selectivity index, ratio of Ki for Sprague-Dawley rat striatal membrane A2 adenosine receptor to Ki for Sprague-Dawley rat whole brain A1 adenosine receptor

Chain of Adenosine receptor A2a (Rattus norvegicus) (P30543 whole entry): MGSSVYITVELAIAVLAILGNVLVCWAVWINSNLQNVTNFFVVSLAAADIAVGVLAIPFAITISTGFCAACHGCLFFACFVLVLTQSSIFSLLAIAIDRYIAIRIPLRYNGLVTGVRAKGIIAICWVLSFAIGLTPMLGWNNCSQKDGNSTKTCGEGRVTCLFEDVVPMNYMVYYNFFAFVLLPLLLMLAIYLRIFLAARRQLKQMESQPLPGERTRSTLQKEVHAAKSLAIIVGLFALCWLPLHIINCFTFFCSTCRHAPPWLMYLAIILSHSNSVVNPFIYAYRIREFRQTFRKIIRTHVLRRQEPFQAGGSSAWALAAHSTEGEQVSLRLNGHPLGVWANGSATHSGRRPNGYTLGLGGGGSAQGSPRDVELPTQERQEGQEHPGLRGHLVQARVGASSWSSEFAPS
Chain of Adenosine receptor A2a (P30543 whole entry): as above

SMILES | inhibition [1] [%] | Ki (Adenosine receptor A2a) [µM] | inhibition [2] [%] | Ki (Adenosine receptor A1 [3]) [µM] | Ki (Adenosine receptor A1 [4]) [µM] | Ratio Ki [5] | Ratio Ki (Rattus norvegicus)
O=c1oc2ccccc2cc1-c1ccccc1 | 51 | > 100 | 77 | > 100 |  |  | 
O=c1oc(-c2ccc(Cl)cc2)nc2ccccc12 | 86 | > 100 | 81 | > 100 |  |  | 
O=c1oc(/C=C/c2ccccc2)nc2ccccc12 | 56 | > 100 | 85 | > 100 |  |  | 
O=c1[nH]c(/C=C/c2ccccc2)nc2ccccc12 | 100 | > 100 | 56 | > 100 |  |  | 
COc1ccc(-c2nc3ccccc3c(=O)o2)cc1 | 54 | > 100 | 37 | > 100 |  |  | 
Oc1nc(-c2ccc(F)cc2)nc2ccccc12 | 50 | > 100 | 62 | > 100 |  |  | 
Cc1ccc(-c2nc3ccccc3c(=O)[nH]2)cc1 |  | > 100 | 55 | 2.5 | 2.95 | 1.18 | 
O=c1oc(-c2cccs2)nc2ccccc12 |  | > 100 | 59 | 32.4 |  |  | 
COc1ccc(-c2nc(O)c3ccccc3n2)cc1 | 44 |  | 79 |  |  |  | 
CCOc1ccc(-c2nc3ccccc3c(=O)o2)cc1 | 99 | > 100 | 77 | > 100 |  |  | 
Oc1nc(-c2ccccc2)cc2ccccc12 | 100 |  | 100 |  |  |  | 
COc1ccc(-c2nc3ccccc3c(=O)[nH]2)cc1 |  | > 100 |  | > 100 |  |  | 
O=c1[nH]c(-c2ccc(Cl)cc2)nc2ccccc12 | 54 | > 100 | 82 | > 100 |  |  | 
O=c1oc(-c2ccco2)nc2ccccc12 | 42 | > 100 | 66 | > 100 |  |  | 
O=c1oc2ccccc2nc1-c1ccccc1 |  | > 100 | 91 | 17.3 |  |  | 
OC[C@H]1O[C@@H](n2cnc3c(NC4CCCC4)ncnc32)[C@H](O)[C@@H]1O [N6-CYCLOPENTYLADENOSINE] |  | 0.557 |  |  |  |  | 
O=c1[nH]c(-c2ccccc2)cc2ccccc12 |  | > 100 |  | > 100 |  |  | 
Oc1nc(-c2cccs2)nc2ccccc12 | 39 | > 100 | 30 | > 100 |  |  | 
O=c1[nH]c(-c2ccc(Br)cc2)nc2ccccc12 | 98 | > 100 | 84 | > 100 |  |  | 
O=c1[nH]c(-c2ccco2)nc2ccccc12 |  | 8.11 |  | 4.62 | 5.89 | 1.23 | 1.76
COc1ccc(-c2nc(O)c3ccccc3n2)cc1OC | 67 | 2.81 |  | > 100 |  |  | 
O=c1oc(-c2ccccc2)nc2ccccc12 |  | > 100 | 49 | 6.38 | 6.92 | 1.09 | 
O=C1OC(c2ccccc2)Nc2ccccc21 (centres undefined) |  | > 100 | 69 | 5.06 | 5.72 | 1.12 | 
O=c1oc(-c2ccc(F)cc2)nc2ccccc12 | 100 | > 100 | 70 | > 100 |  |  | 
Cc1ccc(-c2nc3ccccc3c(=O)o2)cc1 | 84 | > 100 | 77 | > 100 |  |  | 
O=c1oc(-c2ccc(Br)cc2)nc2ccccc12 | 95 | > 100 | 92 | > 100 |  |  | 
